Test results from patent US10047087B2, “Substituted pyrazolo[1,5-A] pyridine as tropomyosin receptor kinase (TrK) inhibitors” (Dr. Reddy's Laboratories Ltd., priority 2011, dated 2018).
Where two headings read alike, the source gives them in different places.

Columns and labels:
[1] = Metabolic stability using Human Liver Microsomes (HLM); type: in vitro ADME; conditions: pooled human liver microsomes, compound 1 μM, 0.3 mg/ml microsomal protein, 1 mM NADPH
Method: Stability Protocol: Metabolic Stability Using Rat Liver Microsomes (RLM) and Human Liver Microsomes (HLM).
This assay was performed using pooled male rat liver microsomes (In-house prepared as per SOP), Pooled Human liver microsomes (XENOTECH; Batch No— H0630-1110189)). The 100 μl reaction contains the compounds at 1 μM, 0.3 mg/ml microsomal protein and both the co-factors (1 mM NADPH) in buffer and the mixture was incubated at different time points (0, 15, 30, 45, 60, & 90 minutes). The reaction was stopped by the addition of equal volume of acetonitrile containing internal standard (Telmesartin). The precipitated protein was removed by centrifugation and the supernatant were analyzed LC/MS-MS method. The percent parent compound remaining was quantified by analysis using following formula (% parent compound remaining=(peak area at Time x/peak area at T0)×100. The intrinsic clearance was calculated using the following formula. CLint,app: (0.693/in vitro t½)(incubation volume/mg of microsomal protein)(45 mg microsomal protein/gram of liver)(20^a g of liver/kg body weight) • a: 20 and 45 g of liver/kg of body weight were used for human and rat, respectively (Lu C et al., DMD, 2006). Bio-analysis: It was performed in Multiple Reaction Monitoring mode (negative mode) using Applied Biosystems API 4000 coupled to Agilent Technologies 1100 series HPLC on a reverse phase column (Zorbax Eclipse XDB C18, 50×4.6 mm, 5 μm). Celecoxib was used as internal standard both in in-vitro and in-vivo experiments. Mobile phase used 0.05% […] water and acetonitrile (10:90) with a flow rate of 0.6 ml/minute. The injection volume was kept as 10 μl.

TrkA kinase = target: T1, TrkA kinase (Homo sapiens, UniProt P04629); assay: In vitro TrkA inhibitory activity using TR-FRET assay; type: biochemical; conditions: 5 ng TrkA, 500 μM ATP
T1 construct: purchased Upstate, USA
Method in brief: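 Kinase (5 ng) was preincubated with compound for 30 min at 20-35° C before adding 40 nM ULight poly GT and 500 μM ATP; stopped with EDTA after 30 min. Eu-anti-phosphotyrosine antibody (0.5 nM) was read at 615/665 nm with 1% DMSO final. Compounds showing >25% inhibition at 1 μM went to sigmoidal dose-response IC50 fitting.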

[2] = both bounds given in nm, read-out: TrkA inhibitory activity in-vitro IC50
[3] = read-out: TrkA inhibition in-vitro IC50

T1 sequence (P04629 33-796): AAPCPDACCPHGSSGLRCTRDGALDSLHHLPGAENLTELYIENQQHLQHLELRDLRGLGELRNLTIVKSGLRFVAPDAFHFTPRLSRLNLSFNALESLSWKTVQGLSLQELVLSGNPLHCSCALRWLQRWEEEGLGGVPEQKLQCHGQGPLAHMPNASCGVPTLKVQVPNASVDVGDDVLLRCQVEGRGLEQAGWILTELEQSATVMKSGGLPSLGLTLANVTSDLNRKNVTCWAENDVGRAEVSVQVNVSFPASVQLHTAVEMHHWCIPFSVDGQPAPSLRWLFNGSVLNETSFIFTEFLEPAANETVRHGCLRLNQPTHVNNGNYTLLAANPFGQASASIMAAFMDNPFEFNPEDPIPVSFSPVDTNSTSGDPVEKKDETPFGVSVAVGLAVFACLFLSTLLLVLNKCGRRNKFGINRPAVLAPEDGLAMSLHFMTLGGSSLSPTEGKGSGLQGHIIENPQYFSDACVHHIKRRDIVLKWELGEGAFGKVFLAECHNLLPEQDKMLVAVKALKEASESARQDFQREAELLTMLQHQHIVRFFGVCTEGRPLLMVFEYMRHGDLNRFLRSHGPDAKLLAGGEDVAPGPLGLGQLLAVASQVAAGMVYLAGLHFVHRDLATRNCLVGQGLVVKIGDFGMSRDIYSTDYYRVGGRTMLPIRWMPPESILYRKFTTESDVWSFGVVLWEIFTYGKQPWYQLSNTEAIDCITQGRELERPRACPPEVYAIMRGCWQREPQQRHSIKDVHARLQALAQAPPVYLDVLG

Row | SMILES | half-life at 1 μM [1] [h] | IC50 (TrkA kinase; [2]) [µM] | IC50 (TrkA kinase; [3]) [µM]
1 | CC(C)(C)S(=O)(=O)NC(=O)c1cnn2ccc(N3CCC[C@@H]3c3cc(F)cc(OC(F)F)c3)cc12 [Example 43, (R)-N-(tert-butylsulfonyl)-5-(2-(3-(difluoromethoxy)-5-fluorophenyl)pyrrolidin-1-yl) pyrazolo[1,5-a]pyridine-3-carboxamide] | > 1.33 | 0.1 to 0.5 | –
2 | COc1ccc(S(=O)(=O)NC(=O)c2cnn3ccc(N4CCC[C@@H]4c4cc(F)ccc4F)cc23)cn1 [Example 26, (R)-5-(2-(2,5-difluorophenyl)pyrrolidin-1-yl)-N-((6-methoxypyridin-3-yl)sulfonyl) pyrazolo[1,5-a]pyridine-3-carboxamide] | > 1.33 | – | 0.05 to 0.1
3 | CCN(C)S(=O)(=O)NC(=O)c1cnn2ccc(N3CCC[C@@H]3c3cc(F)ccc3F)cc12 [Example 77, (R)-5-(2-(2,5-difluorophenyl)pyrrolidin-1-yl)-N-(N-ethyl-N-methylsulfamoyl) pyrazolo[1,5-a]pyridine-3-carboxamide] | > 1.33 | – | ≤ 0.05
4 | CC1OCCC1S(=O)(=O)NC(=O)c1cnn2ccc(N3CCC[C@@H]3c3cc(F)ccc3F)cc12 (stereo partly drawn) [Example 24, 5-((R)-2-(2,5-difluorophenyl)pyrrolidin-1-yl)-N-((2-methyltetrahydrofuran-3-yl)sulfonyl)pyrazolo[1,5-a] pyridine-3-carboxamide] | > 1.33 | 0.1 to 0.5 | –
5 | O=C(NS(=O)(=O)Cc1ccccc1)c1cnn2ccc(N3CCC[C@@H]3c3cc(F)ccc3F)cc12 [Example 40, (R)-N-(benzylsulfonyl)-5-(2-(2,5-difluorophenyl)pyrrolidin-1-yl)pyrazolo[1,5-a]pyridine-3-carboxamide] | > 1.33 | – | ≤ 0.05
6 | CN(C)S(=O)(=O)NC(=O)c1cnn2ccc(N3CCC[C@@H]3c3cc(F)ccc3F)cc12 [Example 76, (R)-5-(2-(2,5-difluorophenyl)pyrrolidin-1-yl)-N—(N, N-dimethylsulfamoyl)pyrazolo[1,5-a]pyridine-3-carboxamide] | > 1.33 | – | ≤ 0.05
